Experimental findings from US12257050B2, “Calibration free in-vivo measurement of analytes using electrochemical sensors” (THE REGENTS OF THE UNIVERSITY OF CALIFORNIA, priority 2017, dated 2025) are described below.

The conditions of this data set: rat, in vivo, iv, 30 mg/kg. An excerpt:
The drift-resistance of chronoamperometrically-interrogated E-AB sensors is sufficient to support continuous, real-time measurements directly in situ in the blood of live animals. Aminoglycoside-binding E-AB were fabricated sensors on 75 μm-diameter gold micro-wires, encased in 22-gauge catheters for structural support, and deployed directly in the jugular veins of live rats (FIG. 6A). The plasma pharmacokinetics of the antibiotic tobramycin were monitored following an intravenous administration of 30 mg/kg by performing continuous chronoamperometric measurements for a total of two hours (FIG. 6B). Continuous measurements were achieved by pulsing the potential of the E-AB sensors serially between −0.1 V and −0.3 V, holding each pulse with a duration of only 100 ms. Then, non-linear regression analysis was performed of the current transients generated at −0.3 V to extract current decay lifetimes in real time, and these lifetimes were converted to concentration using the previously determined Langmuir isotherm (FIG. 6C). […]
The sub-second time resolution of chronoamperometrically interrogated E-AB sensors measurement of drug pharmacokinetics with unprecedented precision. The distribution, α, and elimination, β, lifetimes of tobramycin were determined by fitting the in vivo data to a two-compartment pharmacokinetic model. […]

Consider `NC[C@H]1O[C@H](O[C@H]2[C@H](O)[C@@H](O[C@H]3O[C@H](CO)[C@@H](O)[C@H](N)[C@H]3O)[C@H](N)C[C@@H]2N)[C@H](N)C[C@@H]1O` [tobramycin], for which the “distribution lifetime α (first-order time constant of drug distribution)” value was found to be 3.74 ± 0.04 min and the “elimination lifetime β (elimination time constant)” value came to 69 ± 2 min.
